Assays:
ERα [1] = target: T1, ERα (Homo sapiens, UniProt P03372); assay: ERα reporter (luciferase) transactivation assay in transfected HEK293 cells; assay type: cell-based; design: expressed in transfected cells; host or cells: HEK293; details: sample concentration 10 μM, 24 hours, mean of at least three independent transfections
T1 sequence (P03372 1-595): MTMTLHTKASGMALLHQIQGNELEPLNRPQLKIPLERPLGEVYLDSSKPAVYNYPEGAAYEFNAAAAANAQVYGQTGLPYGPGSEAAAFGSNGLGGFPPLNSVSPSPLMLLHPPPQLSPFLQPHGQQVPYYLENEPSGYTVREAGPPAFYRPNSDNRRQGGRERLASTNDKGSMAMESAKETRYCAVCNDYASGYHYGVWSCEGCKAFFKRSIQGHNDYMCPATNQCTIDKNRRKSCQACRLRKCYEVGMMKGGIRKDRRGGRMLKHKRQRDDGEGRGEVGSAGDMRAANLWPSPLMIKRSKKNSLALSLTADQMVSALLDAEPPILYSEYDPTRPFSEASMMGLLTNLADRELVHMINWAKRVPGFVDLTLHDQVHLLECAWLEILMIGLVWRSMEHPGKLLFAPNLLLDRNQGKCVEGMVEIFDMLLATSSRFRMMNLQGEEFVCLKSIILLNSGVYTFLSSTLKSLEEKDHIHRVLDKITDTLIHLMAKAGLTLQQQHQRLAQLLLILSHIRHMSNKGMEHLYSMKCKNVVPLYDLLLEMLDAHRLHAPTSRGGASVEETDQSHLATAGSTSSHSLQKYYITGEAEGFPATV
Outline: (§1)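 Compounds at 10 μM (or 0.1% vehicle) were applied for 24 hours to HEK293 cells previously transfected with an ERα or ERβ expression plasmid plus ERE-luciferase reporter and β-gal control. Lysate luciferase and β-galactosidase activities were read. Cells were grown in phenol-free, delipidated-serum medium; data are means ±SEM from at least three independent transfections.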

ERα [2] = target: T1, ERα; assay: Competitive binding against [6,7-3H(N)]estradiol in COS-1 cells transfected with human ERα; details: for IC50: ERα IC50, COS-1 cells, competition against labeled E2, 2 hours at 37° C.; for ERα RBA (relative binding affinity): relative to E2 = 100.0
Method: (§2) Determination of Relative Binding Affinity (RBA).
(§3) Relative binding affinities (RBA) were measured by a competitive assay against [6,7-^3H(N)]estradiol (PerkinElmer) in transsiently transfected COS-1 cells. […] After 2 hours of incubation at 37° C. the medium was removed. The cells were removed from the wells to 150 μl of 1× phosphate buffered saline (PBS), transferred to Eppendorf tubes and centrifuged at 4° C. using 4000 g for 5 min, and then washed twice with 150 μl of PBS. The cell pellets were dissolved to 50 μl of 0.5M NaOH and incubated for 15 min at 56° C., after which the samples were transferred to liquid twinkle tubes and treated with 3 ml of OptiPhase HiSafe 3 twinkle solution (PerkinElmer).

ERβ [3] = target: T2, ERβ (Homo sapiens, UniProt Q92731); assay: ERβ reporter (luciferase) transactivation assay in transfected HEK293 cells; assay type: cell-based; design: expressed in transfected cells; host or cells: HEK293; details: for ERβ receptor activation relative to 10 nM E2 corresponding 100: sample concentration 10 μM, 24 hours, mean of at least three independent transfections
Outline: as §1

ERβ [4] = target: T2, ERβ; assay: Competitive binding against [6,7-3H(N)]estradiol in COS-1 cells transfected with human ERβ; details: for IC50: ERβ IC50, COS-1 cells, competition against labeled E2, 2 hours at 37° C.; for ERβ RBA (relative binding affinity): relative to E2 = 100.0
Method: as §2, §3

T2 sequence (Q92731 whole entry): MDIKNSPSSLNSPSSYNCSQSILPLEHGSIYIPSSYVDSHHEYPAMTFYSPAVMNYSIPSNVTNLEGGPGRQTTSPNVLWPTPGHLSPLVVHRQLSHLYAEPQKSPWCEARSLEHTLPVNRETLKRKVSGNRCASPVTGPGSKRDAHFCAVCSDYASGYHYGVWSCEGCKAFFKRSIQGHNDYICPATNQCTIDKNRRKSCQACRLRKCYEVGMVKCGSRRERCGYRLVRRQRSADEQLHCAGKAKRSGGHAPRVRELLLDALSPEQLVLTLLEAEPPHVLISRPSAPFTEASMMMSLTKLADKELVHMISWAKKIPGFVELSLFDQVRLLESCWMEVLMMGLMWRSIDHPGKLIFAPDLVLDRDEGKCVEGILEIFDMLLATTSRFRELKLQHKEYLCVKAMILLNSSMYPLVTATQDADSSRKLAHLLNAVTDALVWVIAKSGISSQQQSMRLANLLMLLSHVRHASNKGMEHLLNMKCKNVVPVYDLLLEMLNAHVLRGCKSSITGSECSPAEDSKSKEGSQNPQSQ

## Oc1ccc(CCCC2=NOC(c3ccccc3)C2)cc1 (single isomer, unassigned) [88b, 3-[3-(4-Hydroxy-phenyl)-propyl]-5-phenyl-4,5-dihydroisoxazole]
ERα [1]
  ERα receptor activation relative to 10 nM E2 corresponding 100: 65.0%
ERα [2]
  IC50: 30 nM
  ERα RBA (relative binding affinity): 6.533%
ERβ [3]
  ERβ receptor activation relative to 10 nM E2 corresponding 100: 77.1%
ERβ [4]
  IC50: 1250 nM
  ERβ RBA (relative binding affinity): 0.157%

## Oc1ccc(CCC2=NOC(Cc3ccccc3)C2)cc1 (single isomer, unassigned) [93b, 5-Benzyl-3-[2-(4-hydroxy-phenyl)-ethyl]-4,5-dihydro-isoxazole]
ERα [1]
  ERα receptor activation relative to 10 nM E2 corresponding 100: 24.3%
ERα [2]
  IC50: 2150 nM
  ERα RBA (relative binding affinity): 0.091%
ERβ [3]
  ERβ receptor activation relative to 10 nM E2 corresponding 100: 41.5%
ERβ [4]
  IC50: 1090 nM
  ERβ RBA (relative binding affinity): 0.180%

## CC1(c2ccccc2)CC(CCCc2ccc(O)cc2)=NO1 (single isomer, unassigned) [90b, 3-[3-(4-Hydroxy-phenyl)-propyl]-5-methyl-5-phenyl-4,5-dihydro-isoxazole]
ERα [1]
  ERα receptor activation relative to 10 nM E2 corresponding 100: 86.5%
ERα [2]
  IC50: 23000 nM
  ERα RBA (relative binding affinity): 0.009%
ERβ [3]
  ERβ receptor activation relative to 10 nM E2 corresponding 100: 30.1%
ERβ [4]
  IC50: 20000 nM
  ERβ RBA (relative binding affinity): 0.010%

## Clc1ccc(C2=NOC(CCc3ccccc3)C2)cc1 (stereo not drawn) [compound 63, 3-(4-Chloro-phenyl)-5-phenethyl-4,5-dihydro-isoxazole]
other
  melting point: 74.8 to 75.7 °C

## COc1ccc(C2=NOC(CCc3ccccc3)C2)cc1 (stereo not drawn) [compound 60, 3-(4-Methoxy-phenyl)-5-phenethyl-4,5-dihydro-isoxazole]
other
  melting point: 69.7 to 71.9 °C

## Fc1ccccc1C1=NOC(Cc2ccccc2)(c2ccccc2)C1 (stereo not drawn) [compound 75, 5-Benzyl-3-(2-fluorophenyl)-5-phenyl-4,5-dihydro-isoxazole]
other
  melting point: 134.3 to 135.2 °C

## c1ccc(CCC2CC(c3ccccc3)=NO2)cc1 (stereo not drawn) [compound 111, 5-Phenethyl-3-phenyl-4,5-dihydroisoxazole]
other
  melting point: 66.1 to 67.2 °C

## COc1ccc(C2=NOC(Cc3ccccc3)C2)cc1 (stereo not drawn) [compound 12, 5-Benzyl-3-(4-methoxyphenyl)-4,5-dihydroisoxazole]
other
  melting point: 99.6 to 100.3 °C

## Fc1ccc(C2=NOC(CCc3ccccc3)C2)cc1 (stereo not drawn) [compound 62, 3-(4-Fluoro-phenyl)-5-phenethyl-4,5-dihydro-isoxazole]
other
  melting point: 69.8 to 71.2 °C

## COc1ccc(C2=NOC(C)(Cc3ccccc3)C2)cc1 (stereo not drawn) [compound 53, 5-Benzyl-3-(4-methoxyphenyl)-5-methyl-4,5-dihydro-isoxazole]
other
  melting point: 97.8 to 98.6 °C

## COc1ccc(C2=NOC(Cc3ccc(F)cc3)C2)cc1 (stereo not drawn) [compound 18, 5-(4-Fluorobenzyl)-3-(4-methoxyphenyl)-4,5-dihydroisoxazole]
other
  melting point: 116.7 to 118.7 °C

## COc1ccc(CC2CC(c3ccc(OC)cc3)=NO2)cc1 (stereo not drawn) [compound 15, 5-(4-Methoxybenzyl)-3-(4-methoxyphenyl)-4,5-dihydroisoxazole]
other
  melting point: 135.8 to 137.7 °C

## COc1ccc(CC2CC(c3ccc(Cl)cc3)=NO2)cc1 (stereo not drawn) [compound 38, 3-(4-Chlorophenyl)-5-(4-methoxybenzyl)-4,5-dihydroisoxazole]
other
  melting point: 126.2 to 127.3 °C

## Clc1cccc(Cl)c1C1=NOC(Cc2ccccc2)C1 (stereo not drawn) [compound 42, 5-Benzyl-3-(2,6-dichlorophenyl)-4,5-dihydroisoxazole]
other
  melting point: 90 to 90.5 °C

## CCc1ccc(CC2CC(c3ccc(Cl)cc3)=NO2)cc1 (stereo not drawn) [compound 34, 3-(4-Chlorophenyl)-5-(4-ethylbenzyl)-4,5-dihydroisoxazole]
other
  melting point: 117.1 to 119.2 °C

## Oc1ccc(CCCC2=NOC(c3ccccc3)C2)cc1 (single isomer, unassigned) [88a, 3-[3-(4-Hydroxy-phenyl)-propyl]-5-phenyl-4,5-dihydroisoxazole]
ERα [1]
  ERα receptor activation relative to 10 nM E2 corresponding 100: 103.6%
ERα [2]
  IC50: 12.5 nM
  ERα RBA (relative binding affinity): 15.68%
ERβ [3]
  ERβ receptor activation relative to 10 nM E2 corresponding 100: 44.7%
ERβ [4]
  IC50: 2050 nM
  ERβ RBA (relative binding affinity): 0.096%

## Clc1ccc(C2=NOC(Cc3cccc4ccccc34)C2)cc1 (stereo not drawn) [compound 41, 3-(4-Chlorophenyl)-5-naphthalen-1-ylmethyl-4,5-dihydro-isoxazole]
other
  melting point: 127.9 to 130.9 °C

## COc1ccc(C2=NOC(Cc3ccc(OC)c(OC)c3)C2)cc1 (stereo not drawn) [16ab, 5-(3,4-Dimethoxybenzyl)-3-(4-methoxyphenyl)-4,5-dihydroisoxazole]
other
  melting point: 88.1 to 89.2 °C
ERα [1]
  ERα receptor activation relative to 10 nM E2 corresponding 100: −4.0%
ERβ [3]; HEK293, 24 h, read-out: ERβ receptor activation relative to 10 nM E2 corresponding 100, sample concentration 10 μM, mean of at least three independent transfections
  activation at 10 µM: 7.3%

## c1ccc(CCCC2=NOC(c3ccccc3)C2)cc1 (single isomer, unassigned) [113a, 5-Phenyl-3-(3-phenyl-propyl)-4,5-dihydro-isoxazole]
ERα [1]
  ERα receptor activation relative to 10 nM E2 corresponding 100: 44.3%
ERα [2]
  IC50: 1900 nM
  ERα RBA (relative binding affinity): 0.103%
ERβ [3]
  ERβ receptor activation relative to 10 nM E2 corresponding 100: −3.1%

## COc1ccccc1C1=NOC(Cc2ccccc2)C1 (stereo not drawn) [compound 6, 5-Benzyl-3-(2-methoxyphenyl)-4,5-dihydroisoxazole]
other
  melting point: 81 to 82 °C

## COc1ccc(CC2CC(c3c(Cl)cccc3Cl)=NO2)cc1 (stereo not drawn) [compound 43, 3-(2,6-Dichlorophenyl)-5-(4-methoxybenzyl)-4,5-dihydroisoxazole]
other
  melting point: 90.1 to 90.6 °C

## c1ccc(CCC2=NOC(c3ccccc3)C2)cc1 (stereo not drawn) [compound 110, 3-Phenethyl-5-phenyl-4,5-dihydroisoxazole]
other
  melting point: 35 to 36.3 °C

## COc1cccc(C2=NOC(Cc3ccccc3)(c3ccccc3)C2)c1 (stereo not drawn) [compound 77, 5-Benzyl-5-phenyl-3-(3-methoxyphenyl)-4,5-dihydro-isoxazole]
other
  melting point: 94.4 to 95.2 °C

## c1ccc(CCC2=NOC(CCc3ccccc3)C2)cc1 (stereo not drawn) [compound 116, 3,5-Di-phenethyl-4,5-dihydroisoxazole]
other
  melting point: 56.2 to 58 °C

## CC1(Cc2ccccc2)CC(c2ccc3ccccc3c2)=NO1 (stereo not drawn) [compound 57, 5-Benzyl-3-naphthalen-2-yl-5-methyl-4,5-dihydro-isoxazole]
other
  melting point: 144.8 to 146.3 °C

## c1ccc(CCCC2=NOC(c3ccccc3)C2)cc1 (single isomer, unassigned) [113b, 5-Phenyl-3-(3-phenyl-propyl)-4,5-dihydro-isoxazole]
ERα [1]
  ERα receptor activation relative to 10 nM E2 corresponding 100: 11.5%
ERα [2]
  IC50: 5600 nM
  ERα RBA (relative binding affinity): 0.035%
ERβ [3]
  ERβ receptor activation relative to 10 nM E2 corresponding 100: 17.2%
ERβ [4]
  IC50: 5400 nM
  ERβ RBA (relative binding affinity): 0.036%

## CC1(c2ccccc2)CC(CCCc2ccc(O)cc2)=NO1 (single isomer, unassigned) [90a, 3-[3-(4-Hydroxy-phenyl)-propyl]-5-methyl-5-phenyl-4,5-dihydro-isoxazole]
ERα [1]
  ERα receptor activation relative to 10 nM E2 corresponding 100: 88.8%
ERα [2]
  IC50: 250 nM
  ERα RBA (relative binding affinity): 0.784%
ERβ [3]
  ERβ receptor activation relative to 10 nM E2 corresponding 100: 64.8%
ERβ [4]
  IC50: 3100 nM
  ERβ RBA (relative binding affinity): 0.063%

## Oc1ccc(CCC2=NOC(Cc3ccccc3)C2)cc1 (single isomer, unassigned) [93a, 5-Benzyl-3-[2-(4-hydroxy-phenyl)-ethyl]-4,5-dihydro-isoxazole]
ERα [1]
  ERα receptor activation relative to 10 nM E2 corresponding 100: 171.1%
ERα [2]
  IC50: 215 nM
  ERα RBA (relative binding affinity): 0.912%
ERβ [3]
  ERβ receptor activation relative to 10 nM E2 corresponding 100: 143.1%
ERβ [4]
  IC50: 1250 nM
  ERβ RBA (relative binding affinity): 0.157%

## Oc1cccc(CCC2=NOC(Cc3ccccc3)C2)c1 (stereo not drawn) [compound 92, 5-Benzyl-3-[2-(3-hydroxy-phenyl)-ethyl]-4,5-dihydro-isoxazole]
other
  melting point: 120.6 to 122.8 °C

## Clc1ccc(C2=NOC(Cc3ccccc3)(c3ccccc3)C2)cc1 (stereo not drawn) [compound 76, 5-Benzyl-3-(4-chlorophenyl)-5-phenyl-4,5-dihydro-isoxazole]
other
  melting point: 120.3 to 122.1 °C

## Oc1ccc(CC2CC(CCc3ccccc3)=NO2)cc1 (stereo not drawn) [compound 94, 5-(4-Hydroxy-benzyl)-3-phenethyl-4,5-dihydro-isoxazole]
other
  melting point: 124.8 to 126.4 °C

## Oc1ccc(CCC2=NOC(Cc3ccccc3)C2)cc1 (stereo not drawn) [compound 93, 5-Benzyl-3-[2-(4-hydroxy-phenyl)-ethyl]-4,5-dihydro-isoxazole]
other
  melting point: 143 to 144.8 °C

Reference: patent US20100267784A1, “NOVEL 4,5-DIHYDROISOXAZOLES WITH ESTROGENIC ACTIVITY” (priority 2007, published 2010)
